Reference: patent US20260232808A1, “Dicarboxylic Acid Concentrates” (Vantage Specialty Ingredients, Inc., priority 2023, published 2026)
Entries after “also recorded” stand apart in the source; their conditions may differ.

Tests used:
[1] = ethanol / ethyl alcohol, normal temperatures; cited from earlier work
[2] = cited from earlier work
Caspase-1 (CASP-1) = experiment: ELISA for Caspase-1 in culture media of EpiDermFT tissue inoculated with C. acnes; type: cell-based, human; conditions: C. acnes ATCC 11827 48 hours, 24-hour treatment
Procedure: (§1) EpiDermFT (EFT-400, MatTek Europe, Bratislava Slovak Republic) is a multilayered reconstituted model of the human dermis and epidermis, formed by culturing normal, human epidermal keratinocytes (NHEK) and normal, human dermal fibroblasts (NHFB). […] The dermal compartment is composed of a collagen matrix containing viable normal human dermal fibroblasts (NHDF). […] Testing was conducted on EpiDermFT in 12-well plates filled with culture medium without antibiotics at 37° C., 5% CO2, saturated humidity (90% RH). Inoculum-6 μL of lipid mix (olive oil and neutral triacylglycerol mixed 1:1) and 60 μL of C. acnes ATCC 11827, 10^7-10^8 CFU/mL-was applied to EpiDerm tissue for 48 hours. […] At the end of the treatment period, culture media was collected and stored at -20° C. for subsequent analysis by ELISA immunoassay for two inflammatory markers TNF-α and C[…] using commercially-available test kits-QuantikineTM ELISA Human Caspase-1/ICE Immunoassay and Human TNF-α Immunoassay both from R&D Systems, Inc. (Minneapolis, MN), Catalog Number DCA100 and DTAOOD, respectively.

[3] = tested on: Tumor Necrosis Factor-alpha (TNF-α); experiment: ELISA for TNF-α in culture media of EpiDermFT tissue inoculated with C. acnes; type: cell-based, human; conditions: C. acnes ATCC 11827 48 hours, 24-hour treatment
Procedure: as §1

Compound	stability of azelaic acid in ethanol [1]	solvent quality for azelaic acid ([2]; isopropanol)	maximum azelaic acid dissolved in water ([2]; water)	CASP-1 inflammatory response versus the C. acnes treated control (Caspase-1 (CASP-1))	TNF-α inflammatory response versus the C. acnes treated control [3]
O=C(O)CCCCCCCC(=O)O [azelaic acid, Azelaic acid]	unstable; also recorded: instability	good	≤ 0.24 % by weight (w/w)	–	–
O=C(O)c1ccccc1O [Group 1, salicylic acid]	–	–	–	increased inflammatory response	increased inflammatory response
